Several values for one entry are separate records, joined by “and”; a condition that tells them apart may be missing. Equal values may be shown once.
Tests used:
Caco-2 cells = assay: Cytotoxicity in Caco-2 cells, CCK-8 assay; assay type: cell-based, human; details: for Cell survival rate%: mean; for cck-8 mean (survival fraction): mean of 6
Protocol: Caco-2 cells were cultured in 96-well plates for 48 h at a seeding density of 5.0 × 10^3 cells/well before the addition of drugs. […] The final concentration of DMSO was 0.05% (v/v). Experiments were initiated by replacing the culture medium in each well with 100 μL of sample solutions at 37°C in the CO2 incubator. After 48 h of incubation, the medium was removed and 10 μL of CCK-8 reagent in the serum-free medium was added to each well. The plates were then incubated at 37°C for another 2 h. At the end of the incubation period, the plates were quantified by reading the absorbance at 450 nm on a micro-plate multi-detection instrument, SpectraMax iD3 with SoftMax® Pro (Molecular Devices Corporation Sunnyvale, CA, USA). The percentage of cell viability was calculated based on the absorbance measured relative to the absorbance of cells exposed to the negative control.

[1] = Stability of the five compounds in SD rat plasma (QC samples, UHPLC-ESI-MS/MS); assay type: in vitro ADME; details: for 3 freeze-thaw cycles mean ± SD / 7 days at -80°C mean ± SD / Room temperature 24h mean ± SD: SD rat plasma QC sample; for stability, Accuracy (measured versus nominal concentration) / stability, mean ± SD (measured concentration): SD rat plasma, n=5
[2] = male, Sprague Dawley, rat, in vivo, po, 352 mg/kg
Protocol: (§1) Blood samples were centrifuged at 3500 rpm for 5 min at 4°C. All plasma samples were then stored at -80°C until analysis.
(§2) All samples were stored in a refrigerator at -80°C and thawed at room temperature before processing. A 50 μL aliquot of plasma was added with 5 μL of the standard solution (or acetonitrile) and 100 μL of internal standard solution in turn, vortexed and mixed, then sonicated for 3 min, centrifuged at 14000 rpm for 10 min at low temperature. The supernatant was transferred to an autosampler vial and analyzed by UHPLC-ESI-MS/MS.
(§3) The mobile phase consisted of 0.1% formic acid solution (A) and acetonitrile (B).
(§4) The ESI ionization source was used and detected in MRM mode.
(§5) All data were presented as mean ± SD. Pharmacokinetic parameters including half-life (t1/2), maximum plasma time (Tmax) and concentration (Cmax), area under concentration-time curve (AUC0-t and AUC0-∞), clearance (CL), steady-state volume of distribution (Vz), and mean residence time (MRT) were analyzed by non-compartmental method using DAS Version 2.0 (Chinese Pharmacological Society, Beijing, China). […] The data were analyzed by Student’s t-test for two groups and one-way analysis of variance for multiple groups; p < 0.05 was considered statistically significant.

in vivo = details: male, Sprague Dawley, rat, po, 352 mg/kg
Protocol: as §1, §2, §3, §4, §5

[3] = Caco-2, concentration 10 μmol/L
[4] = Caco-2, concentration 20 μmol/L
[5] = Caco-2, concentration 40 μmol/L
[6] = Caco-2, concentration 80 μmol/L
[7] = nominal 20 ng/mL, 3 freeze-thaw cycles
[8] = nominal 20 ng/mL, 7 days at -80°C
[9] = nominal 1000 ng/mL, 3 freeze-thaw cycles
[10] = nominal 1000 ng/mL, 7 days at -80°C
[11] = nominal 5000 ng/mL, 3 freeze-thaw cycles
[12] = nominal 5000 ng/mL, 7 days at -80°C
[13] = nominal 20 ng/mL, Room temperature 24h
[14] = nominal 1000 ng/mL, Room temperature 24h
[15] = nominal 5000 ng/mL, Room temperature 24h

Stability in plasma, measured concentration (mean ± SD) ([1]; 3 freeze-thaw cycles, QC concentration 20 ng/mL): 21.4 ± 1.03 ng/mL | Stability in plasma, measured concentration (mean ± SD) ([1]; 3 freeze-thaw cycles, QC concentration 1000 ng/mL): 1069 ± 21.8 ng/mL | Stability in plasma, measured concentration (mean ± SD) ([1]; 3 freeze-thaw cycles, QC concentration 5000 ng/mL): 4765 ± 110 ng/mL | Stability in plasma, measured concentration (mean ± SD) ([1]; 7 days at -80°C, QC concentration 20 ng/mL): 21.1 ± 1.73 ng/mL | Stability in plasma, measured concentration (mean ± SD) ([1]; 7 days at -80°C, QC concentration 1000 ng/mL): 1069 ± 21.6 ng/mL | Stability in plasma, measured concentration (mean ± SD) ([1]; 7 days at -80°C, QC concentration 5000 ng/mL): 4705 ± 267 ng/mL | Stability, measured concentration, mean ± SD ([1]; QC sample 20 ng/mL, 3 freeze-thaw cycles): 21.4 ± 1.03 ng/mL | Stability, measured concentration, mean ± SD ([1]; QC sample 20 ng/mL, 7 days at -80°C): 21.1 ± 1.73 ng/mL | Stability, measured concentration, mean ± SD ([1]; QC sample 20 ng/mL, Room temperature 24h): 21.6 ± 0.78 ng/mL | Stability, measured concentration, mean ± SD ([1]; QC sample 1000 ng/mL, 3 freeze-thaw cycles): 1069 ± 21.8 ng/mL | Stability, measured concentration, mean ± SD ([1]; QC sample 1000 ng/mL, 7 days at -80°C): 1069 ± 21.6 ng/mL | Stability, measured concentration, mean ± SD ([1]; QC sample 1000 ng/mL, Room temperature 24h): 1093 ± 39.5 ng/mL | Stability, measured concentration, mean ± SD ([1]; QC sample 5000 ng/mL, 3 freeze-thaw cycles): 4765 ± 110 ng/mL | Stability, measured concentration, mean ± SD ([1]; QC sample 5000 ng/mL, 7 days at -80°C): 4705 ± 267 ng/mL | Stability, measured concentration, mean ± SD ([1]; QC sample 5000 ng/mL, Room temperature 24h): 5205 ± 494 ng/mL | Stability in plasma, measured concentration (mean ± SD) ([1]; Room temperature 24h, QC concentration 20 ng/mL): 21.6 ± 0.78 ng/mL | Stability in plasma, measured concentration (mean ± SD) ([1]; Room temperature 24h, QC concentration 1000 ng/mL): 1093 ± 39.5 ng/mL | Stability in plasma, measured concentration (mean ± SD) ([1]; Room temperature 24h, QC concentration 5000 ng/mL): 5205 ± 494 ng/mL | 3 freeze-thaw cycles mean ± SD [1, 7]: 21.4 ± 1.03 ng/mL and 21.3622 ng/mL | 7 days at -80°C mean ± SD [1, 8]: 21.1 ± 1.73 ng/mL and 21.1491 ng/mL | Room temperature 24h mean ± SD ([1]; nominal 20 ng/mL): 21.6 ± 0.78 ng/mL and 21.6437 ng/mL | 3 freeze-thaw cycles mean ± SD [1, 9]: 1069 ± 21.8 ng/mL and 1069.41 ng/mL | 7 days at -80°C mean ± SD [1, 10]: 1069 ± 21.6 ng/mL and 1068.61 ng/mL | Room temperature 24h mean ± SD ([1]; nominal 1000 ng/mL): 1093 ng/mL and 1093 ± 39.5 ng/mL | 3 freeze-thaw cycles mean ± SD [1, 11]: 4765 ± 110 ng/mL and 4765.19 ng/mL | 7 days at -80°C mean ± SD [1, 12]: 4705 ± 267 ng/mL and 4704.92 ng/mL | Room temperature 24h mean ± SD ([1]; nominal 5000 ng/mL): 5205.17 ng/mL and 5205 ± 494 ng/mL | stability, Accuracy (measured versus nominal concentration) [1, 7]: 106.81% | stability, mean ± SD (measured concentration) [1, 7]: 21.4 ± 1.03 ng/mL | stability, Accuracy (measured versus nominal concentration) [1, 8]: 105.75% | stability, mean ± SD (measured concentration) [1, 8]: 21.1 ± 1.73 ng/mL | stability, Accuracy (measured versus nominal concentration) [1, 13]: 108.22% | stability, mean ± SD (measured concentration) [1, 13]: 21.6 ± 0.78 ng/mL | stability, Accuracy (measured versus nominal concentration) [1, 9]: 106.94% | stability, mean ± SD (measured concentration) [1, 9]: 1069 ± 21.8 ng/mL | stability, Accuracy (measured versus nominal concentration) [1, 10]: 106.86% | stability, mean ± SD (measured concentration) [1, 10]: 1069 ± 21.6 ng/mL | stability, Accuracy (measured versus nominal concentration) [1, 14]: 109.30% | stability, mean ± SD (measured concentration) [1, 14]: 1093 ± 39.5 ng/mL | stability, Accuracy (measured versus nominal concentration) [1, 11]: 95.30% | stability, mean ± SD (measured concentration) [1, 11]: 4765 ± 110 ng/mL | stability, Accuracy (measured versus nominal concentration) [1, 12]: 94.10% | stability, mean ± SD (measured concentration) [1, 12]: 4705 ± 267 ng/mL | stability, Accuracy (measured versus nominal concentration) [1, 15]: 104.10% | stability, mean ± SD (measured concentration) [1, 15]: 5205 ± 494 ng/mL | CL [2]: 0.024 ± 0.003 L/h | Vz [2]: 0.135 ± 0.049 L | AUC(0-inf) (in vivo): 0.848 ± 0.111 µg·h/mL | AUC(0-t) (in vivo): 0.75 ± 0.114 µg·h/mL | Cmax (in vivo; Cmax): 0.143 ± 0.0373 µg/mL | MRT last (in vivo; MRT(0-t)): 4.04 ± 0.427 h | MRT inf (in vivo; MRT(0-∞)): 6.12 ± 1.34 h | half-life (in vivo; t1/2): 3.94 ± 1.57 h
SMILES: C[C@@H]1CC[C@H]2[C@@H](C)C(=O)O[C@@H]3O[C@@]4(C)CC[C@@H]1[C@]32O4 [DEART, Deoxyartemisinin]
Cell survival rate%, single replicate (Caco-2 cells; Caco-2, 5μmol/L): 87.61% and 87.6% and 80.17% and 81.51% and 81.61% and 87.86% | Cell survival rate%, single replicate (Caco-2 cells; Caco-2, 10μmol/L): 81.2% and 82.86% and 82.71% and 83.82% and 87.89% and 87.9% | Cell survival rate%, single replicate (Caco-2 cells; Caco-2, 20μmol/L): 86.78% and 81.42% and 81.32% and 82.7% and 86.07% and 80.23% | Cell survival rate%, single replicate (Caco-2 cells; Caco-2, 40μmol/L): 83.23% and 82.76% and 82.72% and 82.4% and 81.01% (2×) | Cell survival rate%, single replicate (Caco-2 cells; Caco-2, 80μmol/L): 79.21% and 80.38% and 82.01% and 81.79% and 85.15% and 82.39% | cck-8 cell survival as fraction, single replicate (Caco-2 cells; Caco-2, concentration 5 μmol/L): 0.8761 and 0.876 and 0.8017 and 0.8151 and 0.8161 and 0.8786 | Cell survival rate% (Caco-2 cells; Caco-2, concentration 5 μmol/L): 84.39% | cck-8 mean (survival fraction) (Caco-2 cells; Caco-2, concentration 5 μmol/L): 0.84 | cck-8 cell survival as fraction, single replicate (Caco-2 cells; [3]): 0.812 and 0.8286 and 0.8271 and 0.8382 and 0.8789 and 0.879 | Cell survival rate% (Caco-2 cells; [3]): 84.40% | cck-8 mean (survival fraction) (Caco-2 cells; [3]): 0.84 | cck-8 cell survival as fraction, single replicate (Caco-2 cells; [4]): 0.8678 and 0.8142 and 0.8132 and 0.827 and 0.8607 and 0.8023 | Cell survival rate% (Caco-2 cells; [4]): 83.09% | cck-8 mean (survival fraction) (Caco-2 cells; [4]): 0.83 | cck-8 cell survival as fraction, single replicate (Caco-2 cells; [5]): 0.8323 and 0.8276 and 0.8272 and 0.824 and 0.8101 | Cell survival rate% (Caco-2 cells; [5]): 82.19% | cck-8 mean (survival fraction) (Caco-2 cells; [5]): 0.82 | cck-8 cell survival as fraction, single replicate (Caco-2 cells; [6]): 0.7921 and 0.8038 and 0.8201 and 0.8179 and 0.8515 and 0.8239 | Cell survival rate% (Caco-2 cells; [6]): 81.82% | cck-8 mean (survival fraction) (Caco-2 cells; [6]): 0.82

Reference: publication PMC12058161, “The plant matrix of Artemisia annua L. for the treatment of malaria: Pharmacodynamic and pharmacokinetic studies” (PLOS One, 2025)
